Test results taken from ChEMBL document CHEMBL4152235, “Synthesis, anionophoric activity and apoptosis-inducing bioactivity of benzimidazolyl-based transmembrane anion transporters” (Eur J Med Chem, 2018).
Calls of active or inactive are those of the source. The rule behind the calls is not given here.

What was measured:
MCF7 [1] = assay: Cytotoxicity against human MCF7 cells assessed as reduction in cell viability after 48 hrs by MTT assay; type: functional, cell-based; conditions: MCF7, 48 h
A549 [2] = assay: Cytotoxicity against human A549 cells assessed as reduction in cell viability at 50 uM after 48 hrs by MTT assay relative to control; type: functional; conditions: A549, 48 h
HeLa [3] = assay: Cytotoxicity against human HeLa cells assessed as reduction in cell viability at 50 uM after 48 hrs by MTT assay relative to control; type: functional
MCF7 [4] = assay: Cytotoxicity against human MCF7 cells assessed as reduction in cell viability at 50 uM after 48 hrs by MTT assay relative to control; type: functional; conditions: MCF7, 48 h
A549 [5] = assay: Cytotoxicity against human A549 cells assessed as reduction in cell viability after 48 hrs by MTT assay; type: functional, cell-based; conditions: A549, 48 h
HeLa [6] = assay: Cytotoxicity against human HeLa cells assessed as reduction in cell viability after 48 hrs by MTT assay; type: functional, cell-based
L02 = assay: Cytotoxicity against human LO2 cells assessed as reduction in cell viability after 48 hrs by MTT assay; type: cell-based; conditions: L02, 48 h
HepG2 [7] = assay: Cytotoxicity against human HepG2 cells assessed as reduction in cell viability at 50 uM after 48 hrs by MTT assay relative to control; type: functional; conditions: HepG2, 48 h
HepG2 [8] = assay: Cytotoxicity against human HepG2 cells assessed as reduction in cell viability after 48 hrs by MTT assay; type: functional, cell-based; conditions: HepG2, 48 h
[9] = Ionophoric activity across pyranine dye encapsulated pH 7 egg yolk L-alpha-phosphatidylcholine-based liposomal membranes assessed as chloride ion transport by measuring induction of pH discharge after 20 mins in presence of NaCl loaded external vesicles by fluorescence method
[10] = Binding affinity to chloride ion at 1.5 x 10^-5M using tetra(n-butyl)ammonium chloride measured after 2 mins by spectrophotometric titration method
[11] = Ionophoric activity across pyranine dye encapsulated pH 7 egg yolk L-alpha-phosphatidylcholine-based liposomal membranes assessed as chloride ion transport by measuring induction of pH discharge after 20 mins in presence of NaCl loaded external vesicles by fluorescence method relative to m-Bimbe
HeLa [12] = assay: Ionophoric activity across human HeLa cells assessed as chloride ion efflux at 10 uM after 3 hrs by acridine orange staining based fluorescence microscopic analysis; type: cell-based
MCF7 [13] = assay: Ionophoric activity across human MCF7 cells assessed as chloride ion efflux up to 10 uM after 2 hrs by MQAE dye based fluorescence assay; type: cell-based
HeLa [14] = assay: Ionophoric activity across human HeLa cells assessed as chloride ion efflux up to 10 uM after 2 hrs by MQAE dye based fluorescence assay; type: cell-based
[15] = Binding affinity to chloride ion assessed as 1:1 compound-Cl- complex formation at 4.1 mM using tetra(n-butyl)ammonium chloride by ESI MS spectrometric method
[16] = Binding affinity to chloride ion at 1.5 x 10^-5M using tetra(n-butyl)ammonium chloride measured after 5 mins by spectrophotometric titration method
[17] = Ionophoric activity across pyranine dye encapsulated pH 7 egg yolk L-alpha-phosphatidylcholine-based liposomal membranes assessed as chloride ion transport by measuring initial rate constant for induction of pH discharge at 1.56 x 10^-2 mol% after 20 mins in presence of NaCl loaded external vesicles by fluorescence method (reference value: 5.03 +/- 1.02 10^-3/min)
[18] = Ionophoric activity across pyranine dye encapsulated pH 7 egg yolk L-alpha-phosphatidylcholine-based liposomal membranes assessed as chloride ion transport by measuring initial rate constant for induction of pH discharge at 1.25 x 10^-1 mol% after 20 mins in presence of NaCl loaded external vesicles by fluorescence method (reference value: 5.03 +/- 1.02 10^-3/min)
[19] = Ionophoric activity across pyranine dye encapsulated pH 7 egg yolk L-alpha-phosphatidylcholine-based liposomal membranes assessed as chloride ion transport by measuring initial rate constant for induction of pH discharge at 3.13 x 10^-2 mol% after 20 mins in presence of NaCl loaded external vesicles by fluorescence method (reference value: 5.03 +/- 1.02 10^-3/min)
[20] = Ionophoric activity across pyranine dye encapsulated pH 7 egg yolk L-alpha-phosphatidylcholine-based liposomal membranes assessed as chloride ion transport by measuring initial rate constant for induction of pH discharge at 7.81 x 10^-3 mol% after 20 mins in presence of NaCl loaded external vesicles by fluorescence method (reference value: 5.03 +/- 1.02 10^-3/min)
[21] = Ionophoric activity across pyranine dye encapsulated pH 7 egg yolk L-alpha-phosphatidylcholine-based liposomal membranes assessed as chloride ion transport by measuring initial rate constant for induction of pH discharge at 2.50 x 10^-1 mol% after 20 mins in presence of NaCl loaded external vesicles by fluorescence method (reference value: 5.03 +/- 1.02 10^-3/min)
[22] = Ionophoric activity across pyranine dye encapsulated pH 7 egg yolk L-alpha-phosphatidylcholine-based liposomal membranes assessed as chloride ion transport by measuring initial rate constant for induction of pH discharge at 6.25 x 10^-2 mol% after 20 mins in presence of NaCl loaded external vesicles by fluorescence method (reference value: 5.03 +/- 1.02 10^-3/min)

Row | Compound | IC50 (MCF7 [1]) [µM] | inhibition at 50 µM (A549 [2]) [%] | inhibition at 50 µM (HeLa [3]) [%] | inhibition at 50 µM (MCF7 [4]) [%] | IC50 (A549 [5]) [µM] | IC50 (HeLa [6]) [µM] | IC50 (L02) [µM] | inhibition at 50 µM (HepG2 [7]) [%] | IC50 (HepG2 [8]) [µM] | EC50 [9] | EC50 ([9]; read-out: EC50) [µM] | fold change (FC) [11] | further results
1 | Brc1ccc2nc(-c3cccc(-c4nc5ccc(Br)cc5[nH]4)c3)[nH]c2c1 | 9.7 | 92.6 | 98 | 93.5 | 21.9 | 21.1 | 17.8 | 93.1 | 12.1 | – | – | – | –
2 | COc1cccc2c1C(=O)c1c(O)c3c(c(O)c1C2=O)C[C@@](O)(C(=O)CO)C[C@@H]3O[C@H]1C[C@H](N)[C@H](O)[C@H](C)O1 [DOXORUBICIN] | 0.8 | – | – | – | 0.6 | 0.5 | 0.11 | – | 2.1 | – | – | – | –
3 | c1ccc2[nH]c(-c3ccc(-c4nc5ccccc5[nH]4)cc3)nc2c1 | – | 53.1 | 59.6 | 63.3 | – | – | – | 17.4 | – | – | – | – | –
4 | O=[N+]([O-])c1ccc2nc(-c3cccc(-c4nc5ccc([N+](=O)[O-])cc5[nH]4)c3)[nH]c2c1 | – | 52.1 | 59.2 | 47.4 | – | – | – | 15.4 | – | 8.19 ×10⁻³ mol% | 0.11 | 790 | Ka [10]: 2.22 ×10³ /M
5 | c1ccc(-c2nc3ccccc3[nH]2)c(-c2nc3ccccc3[nH]2)c1 | – | -6 | 24.9 | 11.6 | – | – | – | 3.6 | – | – | – | – | –
6 | FC(F)(F)c1ccc2nc(-c3cccc(-c4nc5ccc(C(F)(F)F)cc5[nH]4)c3)[nH]c2c1 | 12.8 | 99.3 | 100 | 98.8 | 8.9 | 8 | 10.9 | 100 | 6.6 | 9.59 ×10⁻² mol% | 1.27 | 67 | Ka [10]: 4.52 ×10³ /M; Activity (HeLa [12]): Active; Activity (MCF7 [13]): Active; Activity (HeLa [14]): Active
7 | Cn1c(-c2cccc(-c3nc4ccccc4n3C)c2)nc2ccccc21 | – | 22.2 | 43.2 | 23.3 | – | – | – | 49.1 | – | – | – | – | –
8 | Fc1ccc2nc(-c3cccc(-c4nc5ccc(F)cc5[nH]4)c3)[nH]c2c1 | > 100 | 33.6 | 83.5 | 26.4 | > 100 | 11.6 | 20.8 | 78.9 | 17.3 to 17.4 | – | – | – | –
9 | Clc1ccc2nc(-c3cccc(-c4nc5ccc(Cl)cc5[nH]4)c3)[nH]c2c1 | 25.9 | 82.4 | 95.6 | 90.5 | 23.7 | 10.7 | 13.7 | 98.4 | 9.1 | – | – | – | –
10 | c1ccc(-c2nc3ccccc3[nH]2)cc1 | – | 1.2 | 8.1 | 25.5 | – | – | – | 11.6 | – | – | – | – | –
11 | c1cc(-c2nc3ccccc3[nH]2)cc(-c2nc3ccccc3[nH]2)c1 | > 100 | 91.1 | 96.5 | 31.9 | 38.5 | 8.5 | 19.9 | 69.5 | 20.6 | 6.47 mol% | 85.8 | – | Ka [10]: 2.48 ×10³ /M; Activity [15]: Active; Activity (HeLa [12]): Active; Activity (MCF7 [13]): Active; Activity (HeLa [14]): Active
12 | COc1cc(-c2nc3ccc([N+](=O)[O-])cc3[nH]2)cc(-c2nc3ccc([N+](=O)[O-])cc3[nH]2)c1 | 17.1 | 67.7 | 85.3 | 96.3 | 18.5 | 1 | 26.3 | 96.7 | 8.9 | 0.32 mol% | 4.24 | 20 | Activity [9]: Dose-dependent effect; Activity [15]: Active; Ka [16]: 1.56 ×10³ /M
13 | COc1cc(-c2nc3ccc(C(F)(F)F)cc3[nH]2)cc(-c2nc3ccc(C(F)(F)F)cc3[nH]2)c1 | 11.9 | 100 | 91.8 | 98.9 | 8.1 | 8.4 | 10.1 | 101 | 10.7 | 0.15 mol% | 1.99 | 43 | K [17]: 4.33 ×10⁻² /min; Activity [9]: Dose-dependent effect; K [18]: 1.16 ×10⁻¹ /min; Activity [15]: Active; Activity (HeLa [12]): Active; K [19]: 6.31 ×10⁻² /min; K [20]: 3.23 ×10⁻² /min; Activity (MCF7 [13]): Active; K [21]: 1.47 ×10⁻¹ /min; Ka [16]: 3.53 ×10³ /M; K [22]: 8.52 ×10⁻² /min; Activity (HeLa [14]): Active
